From ChEMBL document CHEMBL5137015, “Design, synthesis, and evaluation of a novel series of mono-indolylbenzoquinones derivatives for the potential treatment of breast cancer” (Eur J Med Chem, 2022)
Calls of active or inactive are those of the source. The rule behind the calls is not given here.

Tests used:
MDA-MB-231 [1] = experiment: Induction of cell cycle arrest in human MDA-MB-231 cells assessed as decrease in G1 phase cells at 10 uM incubated for 24 hrs by PI staining based flow cytometric analysis (reference value: 74.44%); format: functional; parameters: scale not given: the % may be the effect or the level left
4T1 [2] = experiment: Antitumor activity aginst mouse 4T1 cells implanted in Balb/c mouse assessed as nuclei disappearance at 50 mg/kg, ip administered every two days for 14 days; format: functional, organism-based; details: time 14.0 day
[3] = Toxicity in Balb/c mouse implanted with mouse 4T1 cells assessed as kidney lesions at 50 mg/kg administered intratumorally every four days for 14 days in the presence of liquid cyanoacrylate by H&E staining based histopathological analysis; format: organism-based; details: in vivo, other, 336 h, route it(Intratumoral), time 14 day
[4] = Toxicity in Balb/c mouse xenografted with mouse 4T1 cells assessed as heart lesions at 200 mg/kg administered topically over the tumor surface every two days for 14 days in the presence of cyanoacrylate by H&E staining based histopathological analysis; format: organism-based; details: in vivo, topical_or_ocular, 336 h, route top, time 14 day
MDA-MB-231 [5] = experiment: Induction of apoptosis in human MDA-MB-231 cells assessed as increase in cytoplasmic vacuoles at 1 uM incubated for 24 hrs by transmission electron microscopic analysis; format: functional, cell-based
4T1 [6] = experiment: Antitumor activity against mouse 4T1 cells implanted in Balb/c mouse assessed as apoptotic rate of dissected tumor cell at 50 mg/kg administered intratumorally every four days for 14 days in the presence of liquid cyanoacrylate by flow cytometric analysis (reference value: 64.83%); format: functional; details: route it(Intratumoral), time 14 day
MDA-MB-231 [7] = experiment: Induction of apoptosis in human MDA-MB-231 cells assessed as increase in caspase 9 expression at 1 uM incubated for 24 hrs by Western blot analysis; format: functional, cell-based
MDA-MB-231 [8] = experiment: Induction of apoptosis in human MDA-MB-231 cells assessed as increase in p53 level at 100 nM incubated for 48 hrs; format: functional, cell-based
[9] = Toxicity in Balb/c mouse implanted with mouse 4T1 cells assessed as effect on body weight at 50 mg/kg, ip administered every two days for 14 days; format: organism-based; details: in vivo, 336 h, time 14 day
4T1 [10] = experiment: Antitumor activity against mouse 4T1 cells implanted in Balb/c mouse assessed as TUNEL positive cells at 50 mg/kg administered intratumorally every four days for 14 days in the presence of liquid cyanoacrylate by TUNEL staining analysis; format: functional; details: route it(Intratumoral), time 14 day
[11] = Acute toxicity in mouse assessed as death rate ratio at 476 mg/kg, ip measured over 14 days; format: organism-based; details: in vivo, 336 h, time 14 day
MDA-MB-231 [12] = experiment: Induction of cell cycle arrest in human MDA-MB-231 cells assessed as increase in S phase cells at 10 uM incubated for 24 hrs by PI staining based flow cytometric analysis (reference value: 16.61%); format: functional
MDA-MB-231 [13] = experiment: Induction of mitochondrial membrane potential loss in human MDA-MB-231 cells assessed as increase in green fluorescence intensity at 0.1 to 1 uM measured after 24 hrs byJC-1 staining based fluorescence microscopic analysis; format: functional, cell-based; details: dose 0.1-1 µM
[14] = Drug metabolism in Balb/c mouse spleen implanted with mouse 4T1 cells assessed as 2-methyl hydroxylation of parent compound causing metabolite formation by LC-MS analysis; format: ADME, tissue-based
MDA-MB-231 [15] = experiment: Induction of apoptosis in human MDA-MB-231 cells assessed as apoptotic cells at 10 uM incubated for 24 hrs by Annexin V-FITC/propidium iodide staining based flow cytometric method (reference value: 5.68%); format: functional

Compound: Cc1[nH]c2ccccc2c1C1=C(Cl)C(=O)C(Cl)=C(N2CCOCC2)C1=O
- Activity (MDA-MB-231 [1]): 16.84%
- Activity (4T1 [2]): Active
- Activity [3]: Non-Toxic
- Activity [4]: Non-Toxic
- Activity (MDA-MB-231 [5]): Active
- Activity (4T1 [6]): 76.24%
- Activity (MDA-MB-231 [7]): Active
- Activity (MDA-MB-231 [8]): Active
- Activity [9]: Non-Toxic
- Activity (4T1 [10]): 49.52%
- Ratio [11]: 0.66
- Activity (MDA-MB-231 [12]): 28.47%
- Activity (MDA-MB-231 [13]): Active
- Drug metabolism [14]: Metabolite_Detected
- Activity (MDA-MB-231 [15]): 31.69%
